Active and inactive are the calls of the source. No cut-off for these calls is given here.

Consider 12 molecules from ChEMBL document CHEMBL3632569, “Chemical constituents from Hericium erinaceus and their ability to stimulate NGF-mediated neurite outgrowth on PC12 cells” (Bioorg Med Chem Lett, 2015).

The subject of data set [1] is PC-12. As to the kind of experiment: Stimulation of NGF-mediated neurite outgrowth in rat PC12 cells at 10 and 20 uM after 48 hrs by inverted microscopic analysis. It is filed as functional, cell-based.
The nature of data set [2]: Cytotoxicity against rat PC12 cells assessed as cell viability at 10 and 20 uM after 72 hrs by SRB assay. It is filed as cell-based. As to conditions: pc-12, 72 h. For orientation: The SRB assay estimates cell density from bound dye.
Data set [3] relates to PC-12. Briefly: Effect on neurite outgrowth in rat PC12 cells at 10 and 20 uM after 48 hrs by inverted microscopic analysis. It is filed as functional, cell-based.
Data set [4] deals with PC-12. Briefly: Stimulation of NGF-mediated neurite outgrowth in rat PC12 cells at 20 uM after 48 hrs by inverted microscopic analysis (reference value: 15.32 +/- 0.25%). In kind it is functional.

As for `CC(C)[C@@H](C)/C=C/[C@@H](C)[C@H]1CC[C@@H]2[C@]1(C)CC[C@H]1[C@]23C=C[C@]2(C[C@@H](O)CC[C@]12C)OO3` [ERGOSTEROL PEROXIDE], the outcome in the data set on PC-12 [1] was Active. Moreover, the Activity entry in data set [2] is “Non-toxic”. Besides, the result in the data set on PC-12 [3] was inactive.

Consider `COc1cc2c(c3c1CC[C@](C)(CC(=O)C=C(C)C)O3)C(=O)OC2`, for which the results for the Activity (with PC-12 [4]; in data set [2]) were 21.79% and “Non-toxic”, respectively. For the same molecule, in the data set on PC-12 [1], the result was Active. Moreover, the result in the data set on PC-12 [3] was inactive.

As to `COc1cc2c(c3c1CC[C@@](C)(CC(=O)C=C(C)C)O3)C(=O)OC2`, the results for the Activity (in the data set on PC-12 [4]; in data set [2]) were 17.85% and “Non-toxic”, respectively. Moreover, the outcome in the data set with PC-12 [1] was Active. In the data set with PC-12 [3], the result was inactive.

For `CC1(C)CC[C@]2(C(=O)O)CC[C@]3(C)C(=CC[C@@H]4[C@@]5(C)CC[C@H](O)C(C)(C)[C@@H]5CC[C@]43C)[C@@H]2C1` [OLEANOLIC_ACID], the Activity entry in data set [2] was “Non-toxic”. In addition, the result with PC-12 [3] was inactive.

As for `COc1cc2c(c3c1CCC(C)(CC(=O)C=C(C)C)O3)C(=O)OC2` (racemic), the values for the Activity (in the data set with PC-12 [4]; in data set [2]) were 19.96% and “Non-toxic”, respectively. Besides, the outcome with PC-12 [1] was Active. Also, the outcome in the data set with PC-12 [3] was inactive.

As for `CC(C)[C@@H](C)/C=C/[C@@H](C)[C@H]1CC[C@H]2C3=C[C@@H](O)[C@@]4(O)C[C@@H](O)CC[C@]4(C)[C@H]3CC[C@]12C` [CEREVISTEROL], in the data set on PC-12 [1], the result was Active. Further, the Activity entry in data set [2] is given as “Non-toxic”. In the data set with PC-12 [3], the outcome was inactive.

Take `CC(C)[C@@H](C)/C=C/[C@@H](C)[C@H]1CC[C@H]2C3=CC(=O)[C@@]4(O)C[C@@H](O)CC[C@]4(C)[C@@]3(O)CC[C@]12C`: the result in the data set with PC-12 [1] was Active. Moreover, in data set [2], the Activity result was “Non-toxic”. In addition, in the data set with PC-12 [3], the outcome was inactive.

`CCCCCCCCCCCCCCCCCCCC(O)C(=O)N[C@@H](CO)C(O)[C@H](O)CCCCCCCCCCCCCCCCC` (stereo partly drawn): the Activity result in data set [2] is reported as “Non-toxic”. The result with PC-12 [3] was inactive.

As for `C[C@H](CC[C@H](O)C(C)(C)O)[C@H]1CC[C@@]2(C)C3=C(CC[C@]12C)[C@@]1(C)CC[C@H](O)C(C)(C)C1CC3` (stereo partly drawn), the Activity entry in data set [2] is “Non-toxic”. Also, the outcome in the data set on PC-12 [3] was inactive.

As for `C/C(=C\CC(O)[C@@H](C)[C@H]1CC[C@@]2(C)C3=C(CC[C@]12C)[C@@]1(C)CC[C@H](O)C(C)(C)C1CC3)C(=O)O` (stereo partly drawn), the Activity result in data set [2] was “Non-toxic”. Besides, the result with PC-12 [3] was inactive.

For `C=C(C)[C@@H]1CC[C@]2(CO)CC[C@]3(C)[C@H](CC[C@@H]4[C@@]5(C)CC[C@H](O)C(C)(C)[C@@H]5CC[C@]43C)[C@@H]12` [BETULIN], in data set [2], the Activity entry is recorded as “Non-toxic”. For the same molecule, in the data set with PC-12 [3], the outcome was inactive.

Consider `C[C@H]1[C@H](C)CC[C@]2(C(=O)O)CC[C@]3(C)C(=CC[C@@H]4[C@@]5(C)CC[C@H](O)C(C)(C)[C@@H]5CC[C@]43C)[C@H]12` [URSOLIC ACID], for which, in data set [2], the Activity result was “Non-toxic”. Besides, the outcome with PC-12 [3] was inactive.
